Data from ChEMBL document CHEMBL2311450, “Synthesis and antibacterial evaluation of novel 11,4″-disubstituted azithromycin analogs with greatly improved activity against erythromycin-resistant bacteria” (2013).
Converted amounts (≈) assume the structure as drawn.

Tests used:
[1] = system: Staphylococcus aureus; assay: Antibacterial activity against penicillin-resistant Staphylococcus aureus clinical isolate by broth microdilution method; format: functional
[2] = system: Streptococcus pyogenes; assay: Antibacterial activity against erythromycin-resistant Streptococcus pyogenes RE clinical isolate by broth microdilution method; format: functional
[3] = system: Salmonella typhimurium; assay: Antibacterial activity against Salmonella typhimurium TA102 by broth microdilution method; format: functional, Salmonella enterica subsp. enterica serovar Typhimurium; conditions: Salmonella enterica
[4] = system: Streptococcus pneumoniae; assay: Antibacterial activity against erythromycin-resistant Streptococcus pneumoniae B1 expressing erm gene by broth microdilution method; format: functional
[5] = system: Streptococcus pneumoniae; assay: Antibacterial activity against erythromycin-susceptible Streptococcus pneumoniae ATCC 49619 by broth microdilution method; format: functional
[6] = system: Streptococcus pyogenes; assay: Antibacterial activity against erythromycin-susceptible Streptococcus pyogenes by broth microdilution method; format: functional
[7] = system: Salmonella typhimurium; assay: Antibacterial activity against Salmonella typhimurium TA98 by broth microdilution method; format: functional, Salmonella enterica subsp. enterica serovar Typhimurium; conditions: Salmonella enterica
[8] = system: Staphylococcus aureus; assay: Antibacterial activity against erythromycin-susceptible Staphylococcus aureus ATCC 25923 by broth microdilution method; format: functional
[9] = system: Staphylococcus aureus; assay: Antibacterial activity against methicillin-susceptible Staphylococcus aureus ATCC 29213 by broth microdilution method; format: functional
[10] = system: Streptococcus pneumoniae; assay: Antibacterial activity against erythromycin-resistant Streptococcus pneumoniae AB11 expressing erm and mef genes by broth microdilution method; format: functional
[11] = system: Streptococcus pneumoniae; assay: Antibacterial activity against erythromycin-resistant Streptococcus pneumoniae A22072 expressing mef gene by broth microdilution method; format: functional

Row | Structure (SMILES) | MIC [1] | MIC [2] | MIC [3] | MIC [4] | MIC [5] | MIC [6] | MIC [7] | MIC [8] | MIC [9] | MIC [10] | MIC [11]
1 | CC[C@H]1OC(=O)[C@H](C)[C@@H](O[C@H]2C[C@@](C)(OC)[C@@H](OC(=O)NCCNC(=O)c3cc([N+](=O)[O-])cc([N+](=O)[O-])c3)[C@H](C)O2)[C@H](C)[C@@H](O[C@@H]2O[C@H](C)C[C@H](N(C)C)[C@H]2O)[C@](C)(O)C[C@@H](C)CN(C)[C@H](C)[C@@H](OC(=O)NCCc2ccccc2)[C@]1(C)O | 4 µg/mL (≈ 3.4 µM) | 64 µg/mL (≈ 54.4 µM) | 2 µg/mL (≈ 1.7 µM) | 0.25 µg/mL (≈ 0.213 µM) | 0.06 µg/mL (≈ 0.051 µM) | 8 µg/mL (≈ 6.8 µM) | 0.5 µg/mL (≈ 0.425 µM) | 0.12 µg/mL (≈ 0.102 µM) | 4 µg/mL (≈ 3.4 µM) | 2 µg/mL (≈ 1.7 µM) | 0.06 µg/mL (≈ 0.051 µM)
2 | CC[C@H]1OC(=O)[C@H](C)[C@@H](O[C@H]2C[C@@](C)(OC)[C@@H](OC(=O)NCCCCNC(=O)c3ccc(OC)cc3)[C@H](C)O2)[C@H](C)[C@@H](O[C@@H]2O[C@H](C)C[C@H](N(C)C)[C@H]2O)[C@](C)(O)C[C@@H](C)CN(C)[C@H](C)[C@@H](OC(=O)NCc2ccccc2)[C@]1(C)O | 2 µg/mL (≈ 1.77 µM) | 64 µg/mL (≈ 56.6 µM) | 0.12 µg/mL (≈ 0.106 µM) | 2 µg/mL (≈ 1.77 µM) | 0.03 µg/mL (≈ 0.0265 µM) | 8 µg/mL (≈ 7.08 µM) | 2 µg/mL (≈ 1.77 µM) | 0.5 µg/mL (≈ 0.442 µM) | 4 µg/mL (≈ 3.54 µM) | 8 µg/mL (≈ 7.08 µM) | 0.12 µg/mL (≈ 0.106 µM)
3 | CC[C@H]1OC(=O)[C@H](C)[C@@H](O[C@H]2C[C@@](C)(OC)[C@@H](OC(=O)NCCCCNC(=O)c3ccc(OC)cc3)[C@H](C)O2)[C@H](C)[C@@H](O[C@@H]2O[C@H](C)C[C@H](N(C)C)[C@H]2O)[C@](C)(O)C[C@@H](C)CN(C)[C@H](C)[C@@H](OC(=O)NCc2ccc(OC)cc2)[C@]1(C)O | 4 µg/mL (≈ 3.45 µM) | 64 µg/mL (≈ 55.2 µM) | 2 µg/mL (≈ 1.72 µM) | 2 µg/mL (≈ 1.72 µM) | 0.12 µg/mL (≈ 0.103 µM) | 32 µg/mL (≈ 27.6 µM) | 16 µg/mL (≈ 13.8 µM) | 1 µg/mL (≈ 0.862 µM) | 4 µg/mL (≈ 3.45 µM) | 16 µg/mL (≈ 13.8 µM) | 0.5 µg/mL (≈ 0.431 µM)
4 | CC[C@H]1OC(=O)[C@H](C)[C@@H](O[C@H]2C[C@@](C)(OC)[C@@H](OC(=O)NCCCCNC(=O)c3ccc(OC)cc3)[C@H](C)O2)[C@H](C)[C@@H](O[C@@H]2O[C@H](C)C[C@H](N(C)C)[C@H]2O)[C@](C)(O)C[C@@H](C)CN(C)[C@H](C)[C@@H](OC(=O)NCc2ccc(C)c(C)c2)[C@]1(C)O | 4 µg/mL (≈ 3.45 µM) | 64 µg/mL (≈ 55.2 µM) | 1 µg/mL (≈ 0.863 µM) | 4 µg/mL (≈ 3.45 µM) | 0.12 µg/mL (≈ 0.104 µM) | 16 µg/mL (≈ 13.8 µM) | 8 µg/mL (≈ 6.91 µM) | 1 µg/mL (≈ 0.863 µM) | 8 µg/mL (≈ 6.91 µM) | 16 µg/mL (≈ 13.8 µM) | 0.5 µg/mL (≈ 0.432 µM)
5 | CC[C@H]1OC(=O)[C@H](C)[C@@H](O[C@H]2C[C@@](C)(OC)[C@@H](OC(=O)NCCCCNC(=O)c3ccc(OC)cc3)[C@H](C)O2)[C@H](C)[C@@H](O[C@@H]2O[C@H](C)C[C@H](N(C)C)[C@H]2O)[C@](C)(O)C[C@@H](C)CN(C)[C@H](C)[C@@H](OC(=O)NCc2ccc(F)cc2)[C@]1(C)O | 4 µg/mL (≈ 3.48 µM) | 64 µg/mL (≈ 55.7 µM) | 1 µg/mL (≈ 0.871 µM) | 4 µg/mL (≈ 3.48 µM) | 0.06 µg/mL (≈ 0.0522 µM) | 32 µg/mL (≈ 27.9 µM) | 8 µg/mL (≈ 6.97 µM) | 1 µg/mL (≈ 0.871 µM) | 8 µg/mL (≈ 6.97 µM) | 16 µg/mL (≈ 13.9 µM) | 0.25 µg/mL (≈ 0.218 µM)
6 | CC[C@H]1OC(=O)[C@H](C)[C@@H](O[C@H]2C[C@@](C)(OC)[C@@H](OC(=O)NCCCCNC(=O)c3ccc(OC)cc3)[C@H](C)O2)[C@H](C)[C@@H](O[C@@H]2O[C@H](C)C[C@H](N(C)C)[C@H]2O)[C@](C)(O)C[C@@H](C)CN(C)[C@H](C)[C@@H](OC(=O)NCc2ccc(F)c(F)c2)[C@]1(C)O | 4 µg/mL (≈ 3.43 µM) | 64 µg/mL (≈ 54.9 µM) | 32 µg/mL (≈ 27.4 µM) | 4 µg/mL (≈ 3.43 µM) | 0.03 µg/mL (≈ 0.0257 µM) | 8 µg/mL (≈ 6.86 µM) | 4 µg/mL (≈ 3.43 µM) | 0.5 µg/mL (≈ 0.429 µM) | 4 µg/mL (≈ 3.43 µM) | 16 µg/mL (≈ 13.7 µM) | 0.12 µg/mL (≈ 0.103 µM)
7 | CC[C@H]1OC(=O)[C@H](C)[C@@H](O[C@H]2C[C@@](C)(OC)[C@@H](OC(=O)NCCCCNC(=O)c3ccc(OC)cc3)[C@H](C)O2)[C@H](C)[C@@H](O[C@@H]2O[C@H](C)C[C@H](N(C)C)[C@H]2O)[C@](C)(O)C[C@@H](C)CN(C)[C@H](C)[C@@H](OC(=O)NCCc2ccccc2)[C@]1(C)O | 4 µg/mL (≈ 3.5 µM) | 64 µg/mL (≈ 55.9 µM) | 0.5 µg/mL (≈ 0.437 µM) | 1 µg/mL (≈ 0.874 µM) | 0.06 µg/mL (≈ 0.0524 µM) | 16 µg/mL (≈ 14 µM) | 4 µg/mL (≈ 3.5 µM) | 1 µg/mL (≈ 0.874 µM) | 0.5 µg/mL (≈ 0.437 µM) | 4 µg/mL (≈ 3.5 µM) | 0.25 µg/mL (≈ 0.218 µM)
8 | CC[C@H]1OC(=O)[C@H](C)[C@@H](O[C@H]2C[C@@](C)(OC)[C@@H](OC(=O)NCCCCNC(=O)c3ccc(OC)cc3)[C@H](C)O2)[C@H](C)[C@@H](O[C@@H]2O[C@H](C)C[C@H](N(C)C)[C@H]2O)[C@](C)(O)C[C@@H](C)CN(C)[C@H](C)[C@@H](OC(=O)NCCc2ccc(OC)cc2)[C@]1(C)O | 8 µg/mL (≈ 6.81 µM) | 64 µg/mL (≈ 54.5 µM) | 0.5 µg/mL (≈ 0.426 µM) | 2 µg/mL (≈ 1.7 µM) | 0.06 µg/mL (≈ 0.0511 µM) | 16 µg/mL (≈ 13.6 µM) | 4 µg/mL (≈ 3.41 µM) | 1 µg/mL (≈ 0.851 µM) | 1 µg/mL (≈ 0.851 µM) | 8 µg/mL (≈ 6.81 µM) | 0.25 µg/mL (≈ 0.213 µM)
9 | CC[C@H]1OC(=O)[C@H](C)[C@@H](O[C@H]2C[C@@](C)(OC)[C@@H](OC(=O)NCCCCNC(=O)c3ccc(OC)cc3)[C@H](C)O2)[C@H](C)[C@@H](O[C@@H]2O[C@H](C)C[C@H](N(C)C)[C@H]2O)[C@](C)(O)C[C@@H](C)CN(C)[C@H](C)[C@@H](OC(=O)NCCc2ccc(F)cc2)[C@]1(C)O | 4 µg/mL (≈ 3.44 µM) | 64 µg/mL (≈ 55.1 µM) | 2 µg/mL (≈ 1.72 µM) | 4 µg/mL (≈ 3.44 µM) | 0.12 µg/mL (≈ 0.103 µM) | 16 µg/mL (≈ 13.8 µM) | 4 µg/mL (≈ 3.44 µM) | 1 µg/mL (≈ 0.86 µM) | 2 µg/mL (≈ 1.72 µM) | 8 µg/mL (≈ 6.88 µM) | 0.5 µg/mL (≈ 0.43 µM)
10 | CC[C@H]1OC(=O)[C@H](C)[C@@H](O[C@H]2C[C@@](C)(OC)[C@@H](OC(=O)NCCCCNC(=O)c3ccc(OC)cc3)[C@H](C)O2)[C@H](C)[C@@H](O[C@@H]2O[C@H](C)C[C@H](N(C)C)[C@H]2O)[C@](C)(O)C[C@@H](C)CN(C)[C@H](C)[C@@H](OC(=O)NCCc2ccccc2Cl)[C@]1(C)O | 4 µg/mL (≈ 3.39 µM) | 64 µg/mL (≈ 54.3 µM) | 8 µg/mL (≈ 6.79 µM) | 2 µg/mL (≈ 1.7 µM) | 0.06 µg/mL (≈ 0.0509 µM) | 16 µg/mL (≈ 13.6 µM) | 2 µg/mL (≈ 1.7 µM) | 0.5 µg/mL (≈ 0.424 µM) | 1 µg/mL (≈ 0.848 µM) | 8 µg/mL (≈ 6.79 µM) | 0.5 µg/mL (≈ 0.424 µM)
11 | CC[C@H]1OC(=O)[C@H](C)[C@@H](O[C@H]2C[C@@](C)(OC)[C@@H](OC(=O)NCCCCNC(=O)c3ccccc3OC)[C@H](C)O2)[C@H](C)[C@@H](O[C@@H]2O[C@H](C)C[C@H](N(C)C)[C@H]2O)[C@](C)(O)C[C@@H](C)CN(C)[C@H](C)[C@@H](OC(=O)NCCc2ccccc2)[C@]1(C)O | 8 µg/mL (≈ 6.99 µM) | 16 µg/mL (≈ 14 µM) | 1 µg/mL (≈ 0.874 µM) | 8 µg/mL (≈ 6.99 µM) | 0.12 µg/mL (≈ 0.105 µM) | 16 µg/mL (≈ 14 µM) | 4 µg/mL (≈ 3.5 µM) | 0.5 µg/mL (≈ 0.437 µM) | 32 µg/mL (≈ 28 µM) | 16 µg/mL (≈ 14 µM) | 2 µg/mL (≈ 1.75 µM)
12 | CC[C@H]1OC(=O)[C@H](C)[C@@H](O[C@H]2C[C@@](C)(OC)[C@@H](OC(=O)NCCCCNC(=O)c3ccc(OC)c(OC)c3)[C@H](C)O2)[C@H](C)[C@@H](O[C@@H]2O[C@H](C)C[C@H](N(C)C)[C@H]2O)[C@](C)(O)C[C@@H](C)CN(C)[C@H](C)[C@@H](OC(=O)NCCc2ccccc2)[C@]1(C)O | 16 µg/mL (≈ 13.6 µM) | 64 µg/mL (≈ 54.5 µM) | 4 µg/mL (≈ 3.41 µM) | 8 µg/mL (≈ 6.81 µM) | 0.12 µg/mL (≈ 0.102 µM) | 8 µg/mL (≈ 6.81 µM) | 4 µg/mL (≈ 3.41 µM) | 0.5 µg/mL (≈ 0.426 µM) | 32 µg/mL (≈ 27.2 µM) | 16 µg/mL (≈ 13.6 µM) | 2 µg/mL (≈ 1.7 µM)
